Source: US7718645B2, “Substituted bicyclolactam compounds” (Pfizer Inc., priority 2007, dated 2010)
Where two headings read alike, the source gives them in different places.

Biological target: T1, Human full-length diacylglycerol:acylCoA acyltransferase 1 (DGAT-1) (Homo sapiens, UniProt O75907)
T1 construct: Human full-length diacylglycerol:acylCoA acyltransferase 1 (DGAT-1) was expressed in Sf9 insect cells; made in house; host or cells: Sf9 insect cells (baculovirus)
T1 sequence (O75907 1-488): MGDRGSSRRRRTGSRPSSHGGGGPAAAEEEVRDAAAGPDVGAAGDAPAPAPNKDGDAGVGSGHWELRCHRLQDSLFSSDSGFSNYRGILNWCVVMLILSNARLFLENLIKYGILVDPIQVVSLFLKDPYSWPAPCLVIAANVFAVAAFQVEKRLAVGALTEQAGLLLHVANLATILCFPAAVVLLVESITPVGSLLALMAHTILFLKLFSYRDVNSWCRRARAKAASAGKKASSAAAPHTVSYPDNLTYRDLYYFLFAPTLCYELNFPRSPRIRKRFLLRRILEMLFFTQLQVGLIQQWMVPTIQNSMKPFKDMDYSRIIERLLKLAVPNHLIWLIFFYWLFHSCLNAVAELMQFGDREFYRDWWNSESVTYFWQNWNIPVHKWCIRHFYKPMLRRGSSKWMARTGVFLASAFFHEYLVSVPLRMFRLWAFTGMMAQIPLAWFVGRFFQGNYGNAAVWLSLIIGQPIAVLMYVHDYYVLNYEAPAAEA
Experiment: In vitro assay for DGAT-1 inhibition ([14C]decanoylCoA, Sf9 membrane fraction)
Format: biochemical
Description: Human full-length diacylglycerol:acylCoA acyltransferase 1 (DGAT-1) was expressed in Sf9 insect cells which are then lysed and a crude membrane fraction (105,000×g pellet) was prepared.
The cells were cultured as follows. Sf9 cells (20 L) were infected with 4 mL of DGAT1 Baculovirus Infected Insect Cells (BIIC) for 72 hours in a Wave Bioreactor System 20/50P (Wave Biotec/GE Healthcare).
Crude DGAT-1 microsomes were prepared as follows. Cell pellets were washed once with ice-cold Dulbecco's phosphate-buffered saline. Cells were collected in tabletop centrifuge (Beckman GS-6KR), 15 minutes, 2000×g, 4° C. Twenty (20) mL of ice-cold Microsome Buffer (MB) was added per 5 g of cell pellet. The suspension was passed through a microfluidizer 3 times (18K psi). The lysate was transferred to centrifuge tubes and centrifuged for 20 minutes at 5000×g (Beckman-Coulter, Inc. Allegra® 64R High-Speed Refrigerated Benchtop Centrifuge, F0650 rotor) at 4° C. The supernatant was transferred to Ultracentrifuge tubes and centrifuged at […] for 1 hr in a Beckman Ti-45 rotor, 4° C. The supernatant fluid was discarded. The pellet was resuspended in 70 mL of MB by sonication. The microsome concentration was determined using Bio-Rad Protein DC Protein Assay. The microsomes were filter sterilized with a 0.22 μm filter. The samples were portioned, flash frozen and stored at −80° C.
Inhibitors in DMSO were pre-incubated with membranes before initiating the DGAT-1 reaction by the addition of decanoylCoA. […] The inhibitors were present at a range of eight concentrations to generate an apparent IC50 for each compound. […] Specifically, the eight concentrations used were 10 μM, 3 μM, 1 μM, 300 nM, 100 nM, 30 nM, 10 nM and 3 nM.
The reactions were allowed to proceed for 1.5 h at room temperature and then terminated by the addition of 10 μl of HCl (0.5 M). Reaction mixtures were neutralized by the addition of 15 μl of tris(hydroxy-methyl)aminomethane (1M, pH 8.0) and then mixed by trituration with 37.5 μl of Microscint™-E (Perkin Elmer).
Where this DGAT-1 inhibition assay was performed on a compound more than once, an inhibition range is also provided for that compound.

[1] = apparent IC50, eight inhibitor concentrations 10 μM to 3 nM, read-out: IC50
[2] = inhibition range where the assay was performed on a compound more than once, read-out: IC50 range

| IC50 [1] [nM] | IC50 [2] [nM] | SMILES |
| --- | --- | --- |
| 12.9 | 4.5 to 22.2 | C[C@@H]1CN(c2ccc(C3CCC(CC#N)CC3)c(F)c2)C(=O)c2c(N)ncnc2O1 (stereo partly drawn) [Example 48, (R)-2-(4-(4-(4-amino-8-methyl-5-oxo-7,8-dihydropyrimido[5,4-f][1,4]oxazepin-6(5H)-yl)-2-fluorophenyl)cyclohexyl)acetonitrile] |
| 7.8 | 5.8 to 10.5 | Nc1ncnc2c1C(=O)N(c1ccc(C3CCC(C(=O)O)CC3)cc1)CCO2 (centres unmarked) [Example 49, 4-[4-(4-Amino-5-oxo-7,8-dihydro-5H-9-oxa-1,3,6-triaza-benzocyclohepten-6-yl)-phenyl]-cyclohexanecarboxylic Acid] |
| 47.3 | 45.2 to 49.5 | COC(=O)C1CCC(c2ccc(N3CCOc4ncnc(N)c4C3=O)cc2)CC1 (centres unmarked) [Example 50, 4-[4-(4-Amino-5-oxo-7,8-dihydro-5H-9-oxa-1,3,6-triaza-benzocyclohepten-6-yl)-phenyl]-cyclohexanecarboxylic Acid Methyl Ester] |
| 254 |  | COC(=O)Cc1ccc(Oc2ccc(N3CCOc4ncnc(N)c4C3=O)cc2)cc1 [Example 54, Methyl {4-[4-(4-amino-5-oxo-7,8-dihydropyrimido[5,4-f][1,4]oxazepin-6(5H)-yl)phenoxy]phenyl}acetate] |
| 78.3 |  | COC(=O)C1C2C1[C@H]1C[C@@H]2C[C@@H]1c1ccc(N2CCOc3ncnc(N)c3C2=O)cc1 (stereo partly drawn) [Example 56, (1R,5R,6S)-6-[4-(4-Amino-5-oxo-7,8-dihydro-5H-9-oxa-1,3,6-triaza-benzocyclohepten-6-yl)-phenyl]-tricyclo[3.2.1.0*2,4*]octane-3-carboxylic Acid Methyl Ester] |
